The values below are quoted from earlier work in patent US20210015755A1, “SECNIDAZOLE SOFT GELATIN CAPSULE AND METHODS AND USES THEREOF” (Lupin Inc., priority 2019, published 2021).

The test system of series [1] is bacterial vaginosis.

Take `Cc1ncc([N+](=O)[O-])n1CCO` [metronidazole]: the “effectiveness in the treatment of bacterial vaginosis” value in series [1] (500 mg ovule formulation versus 37.5 mg metronidazole gel (Sanchez et al.)) is “significantly more effective”. For the same molecule, the cure rates result in series [1] (intravaginal 750 mg ovule formulation versus 500 mg ovule composition (Aguin et al.)) is recorded as “higher cure rates”.
`Cc1ncc([N+](=O)[O-])n1CC(C)O` (stereo not shown) [Secnidazole, 1-(2-hydroxypropyl)-2-methyl-5-nitromidazole]: the “excreted intact in the urine” value (in vivo) was 50%. Moreover, the “absorption after oral administration” value (oral administration) was “rapidly and completely absorbed”.
